{"source": "patent US20210315992A1", "about": "“ADJUVANT EFFECT OF THE TLR1/2 AGONIST DIPROVOCIM SYNERGIZES WITH CHECKPOINT-INHIBITING ANTIBODIES TO ELIMINATE DISEASE” (The Board of Regents of the University of Texas System, priority 2018, published 2021)", "key": {"[1]": {"tested_on": "B16-OVA and B16F10 tumor cells", "experiment": "Re-challenge of tumor-free survivors with B16-OVA and B16 cells", "type": "in vivo, mouse", "conditions": "survivors of Diprovocim+OVA plus anti-PD-L1, no further therapy"}, "mouse BMDC": {"tested_on": "mouse BMDC", "experiment": "TNF production by mouse bone marrow-derived dendritic cells (ELISA)", "type": "cell-based", "conditions": "4 hours, read-out: EC50, dose-dependent TNF production", "method": "For murine BMDCs, bone morrow cells were cultured in Petri dishes in 10 ml DMEM cell culture medium containing 10 ng/ml of murine GM-CSF (R&D Systems). On day 3 of culture, this was replaced with fresh GM-CSF medium. Loosely adherent cells were transferred to a fresh Petri dish and cultured for an additional 4 d. Human PBMC were purchased from Stemcell Technologies. THP-1 (ATCC) cells were differentiated by treatment with 100 nM PMA (Sigma) in RPMI cell culture medium [RPMI containing 10% vol/vol FBS (Gemini Bio Products), 1% penicillin and streptomycin (Life Technologies)] for 24 hours. After that, cells were washed with PBS and cultured in fresh RPMI cell culture medium for 24 hours before use in studies.\nCells were seeded onto 96-well plates at 1×10^5 cells per well and stimulated with a Diprovocim (dissolved in DMSO, and final DMSO concentrations (0.2%) were kept constant in all experiments) for 4 h. Mouse TNF, IL-6, or IFN-β, or human TNF in the supernatants were measured by ELISA kits according to the manufacturer's instructions (eBioscience and PBL Assay Science). Pretreatment with 20 μg/ml anti-TLR1, anti-TLR2 or isotype control antibody (eBioscience) was for 1 hour. Unless otherwise indicated, mouse cells were from wild type C57BL/6J mice."}}}
{"molecule": "O=C(N[C@H]1C[C@@H]1c1ccccc1)[C@@H]1CN(C(=O)c2ccc(C(=O)N3C[C@@H](C(=O)N[C@H]4C[C@@H]4c4ccccc4)[C@H](C(=O)N[C@H]4C[C@@H]4c4ccccc4)C3)cc2)C[C@H]1C(=O)N[C@H]1C[C@@H]1c1ccccc1", "note": "[Diprovocim-1, (3S,3'S,4S,4'S)-1,1′-Terephthaloylbis(N^3,N^4-bis((1S,2R)-2-phenylcyclo-propyl)pyrrolidine-3,4-dicarboxamide)]", "values": [{"measurement": "memory response on tumor re-challenge", "setting": "[1]", "result": "antigen-specific memory responses that protect the host from relapse of tumor growth"}, {"measurement": "EC50", "setting": "mouse BMDC", "result": 6.7, "unit": "nM"}]}
